Tested on: MPNST complex spheroid with HUVEC/MSC, growth, % test/control
Assay: Anticancer human tumor MPNST cell line growth inhibition [Asc];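 also: compounds left on spheroids for seven days before reading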
Settings: for IC50: curve of first compound; for viability, T/C: stronger effect = lower value
Outline: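 Complex solid-tumor spheroids incorporating human endothelial and mesenchymal stem cells received single agents or combinations over half-log dilution ranges anchored to clinical Cmax.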

## NC(=O)C(=Cn1cnc(-c2cc(C(F)(F)F)cc(C(F)(F)F)c2)n1)c1cncnc1 + CNC(C)C(=O)NC1CN(S(=O)(=O)c2cccc(S(=O)(=O)N3CCC4CCC(C(=O)NC(c5ccccc5)c5ccccc5)N4C(=O)C(NC(=O)C(C)NC)C3)c2)CCC2CCC(C(=O)NC(c3ccccc3)c3ccccc3)N2C1=O
Second compound 0.00316 µM
  IC50: 11.6 nM
Second compound 0.01 µM
  IC50: 54.6 nM
Second compound 0.0316 µM
  IC50: 163 nM
Second compound 0.1 µM
  IC50: 52.7 nM
Second compound 0.316 µM
  IC50: 18.1 nM
Second compound 1 µM
  IC50: 69.8 nM
Second compound 0.00316 µM, first compound 0.000949 µM
  viability, T/C: 68.7%
Second compound 0.00316 µM, first compound 0.003 µM
  viability, T/C: 65%
Second compound 0.00316 µM, first compound 0.00949 µM
  viability, T/C: 49.3%
Second compound 0.00316 µM, first compound 0.03 µM
  viability, T/C: 43.9%
Second compound 0.00316 µM, first compound 0.0949 µM
  viability, T/C: 28%
Second compound 0.00316 µM, first compound 0.3 µM
  viability, T/C: 30.8%
Second compound 0.01 µM, first compound 0.000949 µM
  viability, T/C: 78.4%
Second compound 0.01 µM, first compound 0.003 µM
  viability, T/C: 73%
Second compound 0.01 µM, first compound 0.00949 µM
  viability, T/C: 84.1%
Second compound 0.01 µM, first compound 0.03 µM
  viability, T/C: 66.3%
Second compound 0.01 µM, first compound 0.0949 µM
  viability, T/C: 34.6%
Second compound 0.01 µM, first compound 0.3 µM
  viability, T/C: 35.3%
Second compound 0.0316 µM, first compound 0.000949 µM
  viability, T/C: 58.5%
Second compound 0.0316 µM, first compound 0.003 µM
  viability, T/C: 72%
Second compound 0.0316 µM, first compound 0.00949 µM
  viability, T/C: 70.5%
Second compound 0.0316 µM, first compound 0.03 µM
  viability, T/C: 82.1%
Second compound 0.0316 µM, first compound 0.0949 µM
  viability, T/C: 59.2%
Second compound 0.0316 µM, first compound 0.3 µM
  viability, T/C: 34.9%
Second compound 0.1 µM, first compound 0.000949 µM
  viability, T/C: 101%
Second compound 0.1 µM, first compound 0.003 µM
  viability, T/C: 80.7%
Second compound 0.1 µM, first compound 0.00949 µM
  viability, T/C: 103%
Second compound 0.1 µM, first compound 0.03 µM
  viability, T/C: 62.3%
Second compound 0.1 µM, first compound 0.0949 µM
  viability, T/C: 37.5%
Second compound 0.1 µM, first compound 0.3 µM
  viability, T/C: 36.9%
Second compound 0.316 µM, first compound 0.000949 µM
  viability, T/C: 72.6%
Second compound 0.316 µM, first compound 0.003 µM
  viability, T/C: 49.9%
Second compound 0.316 µM, first compound 0.00949 µM
  viability, T/C: 60.5%
Second compound 0.316 µM, first compound 0.03 µM
  viability, T/C: 46%
Second compound 0.316 µM, first compound 0.0949 µM
  viability, T/C: 43.7%
Second compound 0.316 µM, first compound 0.3 µM
  viability, T/C: 34.4%
Second compound 1 µM, first compound 0.000949 µM
  viability, T/C: 63.2%
Second compound 1 µM, first compound 0.003 µM
  viability, T/C: 59%
Second compound 1 µM, first compound 0.00949 µM
  viability, T/C: 66.2%
Second compound 1 µM, first compound 0.03 µM
  viability, T/C: 55.6%
Second compound 1 µM, first compound 0.0949 µM
  viability, T/C: 47.8%
Second compound 1 µM, first compound 0.3 µM
  viability, T/C: 36%

## CCN1CCN(Cc2ccc(Nc3ncc(F)c(-c4cc(F)c5nc(C)n(C(C)C)c5c4)n3)nc2)CC1 + CNC(C)C(=O)NC1CN(S(=O)(=O)c2cccc(S(=O)(=O)N3CCC4CCC(C(=O)NC(c5ccccc5)c5ccccc5)N4C(=O)C(NC(=O)C(C)NC)C3)c2)CCC2CCC(C(=O)NC(c3ccccc3)c3ccccc3)N2C1=O
Second compound 0.00316 µM
  IC50: > 1000 nM
Second compound 0.01 µM
  IC50: > 1000 nM
Second compound 0.0316 µM
  IC50: > 1000 nM
Second compound 0.1 µM
  IC50: > 1000 nM
Second compound 0.316 µM
  IC50: > 1000 nM
Second compound 1 µM
  IC50: > 1000 nM
Second compound 0.00316 µM, first compound 0.00316 µM
  viability, T/C: 80.7%
Second compound 0.00316 µM, first compound 0.01 µM
  viability, T/C: 58.2%
Second compound 0.00316 µM, first compound 0.0316 µM
  viability, T/C: 58.9%
Second compound 0.00316 µM, first compound 0.1 µM
  viability, T/C: 56.2%
Second compound 0.00316 µM, first compound 0.316 µM
  viability, T/C: 51.9%
Second compound 0.00316 µM, first compound 1 µM
  viability, T/C: 57.2%
Second compound 0.01 µM, first compound 0.00316 µM
  viability, T/C: 141%
Second compound 0.01 µM, first compound 0.01 µM
  viability, T/C: 83.2%
Second compound 0.01 µM, first compound 0.0316 µM
  viability, T/C: 102%
Second compound 0.01 µM, first compound 0.1 µM
  viability, T/C: 71.8%
Second compound 0.01 µM, first compound 0.316 µM
  viability, T/C: 61.2%
Second compound 0.01 µM, first compound 1 µM
  viability, T/C: 73%
Second compound 0.0316 µM, first compound 0.00316 µM
  viability, T/C: 94.5%
Second compound 0.0316 µM, first compound 0.01 µM
  viability, T/C: 92.9%
Second compound 0.0316 µM, first compound 0.0316 µM
  viability, T/C: 106%
Second compound 0.0316 µM, first compound 0.1 µM
  viability, T/C: 66.5%
Second compound 0.0316 µM, first compound 0.316 µM
  viability, T/C: 72.5%
Second compound 0.0316 µM, first compound 1 µM
  viability, T/C: 87.1%
Second compound 0.1 µM, first compound 0.00316 µM
  viability, T/C: 79.7%
Second compound 0.1 µM, first compound 0.01 µM
  viability, T/C: 74.2%
Second compound 0.1 µM, first compound 0.0316 µM
  viability, T/C: 75.3%
Second compound 0.1 µM, first compound 0.1 µM
  viability, T/C: 61.7%
Second compound 0.1 µM, first compound 0.316 µM
  viability, T/C: 60.7%
Second compound 0.1 µM, first compound 1 µM
  viability, T/C: 82.7%
Second compound 0.316 µM, first compound 0.00316 µM
  viability, T/C: 86.5%
Second compound 0.316 µM, first compound 0.01 µM
  viability, T/C: 69.8%
Second compound 0.316 µM, first compound 0.0316 µM
  viability, T/C: 106%
Second compound 0.316 µM, first compound 0.1 µM
  viability, T/C: 104%
Second compound 0.316 µM, first compound 0.316 µM
  viability, T/C: 71.9%
Second compound 0.316 µM, first compound 1 µM
  viability, T/C: 76.7%
Second compound 1 µM, first compound 0.00316 µM
  viability, T/C: 66.6%
Second compound 1 µM, first compound 0.01 µM
  viability, T/C: 83%
Second compound 1 µM, first compound 0.0316 µM
  viability, T/C: 66.4%
Second compound 1 µM, first compound 0.1 µM
  viability, T/C: 61.4%
Second compound 1 µM, first compound 0.316 µM
  viability, T/C: 73.9%
Second compound 1 µM, first compound 1 µM
  viability, T/C: 68.7%

From PubChem BioAssay AID1963442 (Molecular Pharmacology Branch, DTP, NCI, 2024)
